Results reported in article PMC12323867 (RSC Medicinal Chemistry, 2025).
Read-outs that look alike come from different tables or passages of the source.

Key:
[1] = molecular target: T1, HDAC1-CoREST-LSD1 complex (Homo sapiens, UniProt O60341); assay: LSD1 HRP-coupled demethylase assay, TCP analogues; type: biochemical; settings: for LSD1 inhibition at 50 μM: single concentration 50 μM, compared to no compound treatment control
T1 construct: full length native LSD1 (UniProt ID: O60341); made in house; host or cells: HEK 293F cells (co-transfection, pcDNA3 vectors)
Method: We then evaluated LSD1 inhibition in the LSD1-HDAC1-CoREST complex using the established horseradish peroxidase (HRP) assay.[8]
(§1) 2. Supplementary Information: Biology
(§2) 2.1. LSD-HDAC1-CoREST expression and purification
(§3) Lysis Buffer (Buffer A) Wash Buffer (Buffer B)
(§4) • 50 mM Tris/Cl pH 7.5 • 50 mM Tris/Cl pH 7.5
(§5) • 50 mM Potassium Acetate • 50 mM Potassium Acetate […]
(§6) Cleavage Buffer (Buffer C) Gel Filtration Buffer (Buffer D)
(§7) • 50 mM Tris/Cl pH 7.5 Filtered at vacuum.
(§8) • 50 mM Potassium Acetate • 50 mM Tris/Cl pH 7.5
(§9) • 5 % v/v Glycerol • 50 mM Potassium Acetate
(§10) • 0.5 mM tris(2- • 0.5 mM TCEP carboxyethyl)phosphine (TCEP)
(§11) The CoREST ternary complex was comprised of full length native LSD1 (UniProt ID: O60341), full length HDAC1 (UniProt ID: Q13547) and N-terminally truncated RCOR1 (86-485aa) (UniProt ID:
(§12) Q9UKL0). Protein constructs were cloned into pcDNA3 vector. The RCOR1 constructs contained an N-terminal (His)10(Flag)3 tag followed by a Tev protease cleavage site. The constructs for ternary complex were co-transfected into suspension-grow HEK 293F cells (Thermofisher Scientific) with polyethylenimine (PEI) (Sigma) and harvested after 48 hours. This section of the procedure was carried out as described previously in literature.11,12
(§13) Cell pellets from 1.2 L culture were defrosted, and buffer A (30 mL) was added. The solution was sonicated (Soniprep 150) in an beaker of ice using a 9 mm probe at 10 ampules; operated with 10 […]
Components and concentrations for the HRP-coupled demethylase assay […]
The assay components are shown at their final concentrations per well in the table above. CoREST complex (HDAC 1/RCOR1/LSD1) was added to the assay buffer alongside either DMSO or the relevant inhibitor at the desired concentration on black-walled 96 well plates. Alongside this was another control, with DMSO but no CoREST or inhibitor. Plates were spun to 3000 rpm between each addition of a reagent. Plates were incubated at 20 °C for 30 mins, following which HRP/Amplex Ultrared (1:1 mixture) and peptide was added. Plates were spun, then read on an PerkinElmer 2030 Explorer plate reader, with excitation of 530 nm and […] of 590 nm, with 7 readings taken over […]
Components, where bought in, are listed below:
HRP – Pierce™ Horseradish Peroxidase, Invitrogen
H3K4me2 peptide – Histone H3 dimethyl lysine-4 peptide, Enzo Life Sciences Amplex UltraRed, ThermoFisher Scientific
To the assay buffer was added HRP/AMP in each well to concentrations equal to those in above, following which hydrogen peroxide solution (diluted from 3% hydrogen peroxide solution into a 20 mM stock) was added, in a 1 in 3 dilution series with final concentrations starting from 3 mM.
Negative control wells contained either 100% buffer or as above with no hydrogen peroxide solution.

[2] = molecular target: T2, LSD1-HDAC1-CoREST complex (Homo sapiens, UniProt O60341); assay: LSD1 HRP-coupled demethylase assay, SP2509/SP2577 analogues; type: biochemical
T2 construct: full length native LSD1 (UniProt ID: O60341); made in house; host or cells: HEK 293F cells (co-transfection, pcDNA3 vectors)
Method: The analogues synthesised were then tested for their ability to inhibit LSD1 using purified LSD1-HDAC1-CoREST complex (Fig. 2B). We used an established fluorescent read out horseradish peroxidase (HRP) assay to monitor LSD1 enzymatic activity in the CoREST complex[8] (see ESI ^† for full details).
as §1, §2, §3, §4, §5, §6, §7, §8, §9, §10, §11, §12, §13
2.2. SP2509/SP2577 analogues LSD1 HRP-coupled demethylase assay protocol The commercial reagents for the assay were HRP and Amplex® Ultrared, which are available to purchase from ThermoFisher (31490) and Invitrogen (10737474), respectively. HRP was made up to 8 mg/mL stock solution in 1xPBS buffer, divided into 10 µL aliquots, snap-frozen in liquid nitrogen and stored at -80 °C. Amplex® Ultrared was made up to 10 mM solution in DMSO, divided into 20 µL aliquots and wrapped in foil, away from light and stored at -20 °C. For each assay experiment, CoREST complex was diluted to 500 nM in assay buffer (20 mM HEPES pH 7.5 and 50 mM NaCl).
HRP was defrosted by diluting each aliquot in 90 µL 1xPBS solution, making a 0.8 mg/mL solution.
Amplex® Ultrared was made up to 200 µM in assay buffer. HRP and Amplex® Ultrared were pre-mixed before addition to the plate. H3K4Me2 substrate (4 mM in deionised water) was diluted to 300 µM in assay buffer. All stocks were stored on ice during assay preparation.
The assay was carried out using a ‘black well’ 96 well plate (Corning no. 3915) in a reaction volume of 100 μL. The final concentrations in the assay were as follows: 50 nM CoREST complex, 10 μM Amplex® UltraRed, 0.04 mg/mL HRP and 15 μM H3K4Me2 peptide substrate. The final DMSO concentration in each well was 1.1 %. Three wells of each experiments were designated ‘background controls’ and contained 85 μL assay buffer, premixed Amplex® UltraRed and HRP (10 µL) and H3K4Me peptide substrate (300 μM, 5 µL).
A stock solution of inhibitor (1 -5 mM in DMSO) was subjected to an inhibitor dilution series, in Eppendorf tubes, in 100 % DMSO. Each new inhibitor stock (4 μL) was diluted in assay buffer (1 in 75) within a new Eppendorf set with assay buffer (20 mM HEPES pH 7.5 and 50 m M NaCl), ensuring the percentage of DMSO was consistent throughout the series. To each well of interest, Inhibitor in assay buffer (75 μL) was added, and CoREST complex (500 nM, 10 µL) was added thereafter. The plate was placed on a rocker and pre -incubated for 30 mins. To each well, premixed Amplex® UltraRed and HRP (10 µL) was added before H3K4Me 2 peptide substrate in assay buffer solution (300 μM, 5 µL) was added to the wall of the plate. The plate was covered in foil and spun down for one minute before being placed in the plate reader. The final percentage concentration of DMSO in […]

H3K4me2 in HCT116 cells = assay: Histone methylation H3K4me2 by western blot; type: cell-based, human; settings: HCT116, 0.1–10 μM, 24 hours, H3K4me2 antibody
Method: We next screened 25–33 and SP2509 over a concentration range of 0.1–10 μM in HCT116 cells (obtained from ATCC, CCL-247) and determined LSD1 abundance after 24 hours with an antibody for LSD1 (Fig. S4 ^†). […] Using the same conditions, we also determined the effects of SP2509, 25, 27, 28, 30 and 31 on histone H3 lysine 4 dimethyl (H3K4me2) a validated substrate for LSD1 using a specific antibody for H3K4me2 (Fig. S4 ^†).
Compounds 39–41, 49, 52 and 54 were screened for LSD1 degradation in HCT116 cells using a specific antibody for LSD1. This was performed side-by-side with TCP. Compounds were tested at concentration ranges of 0.2–20 μM and LSD1 abundance was quantified at 24 hours (Fig. S5 ^†). 49, 52 and 54 were also evaluated at 48 and 72 hours. […] We also determined the effects of these compounds on the histone methyl marker H3K4me2 (Fig. S5 and S6 ^†).
2.5 Protocols for LSD1 degradation and histone methylation in HCT116 cells HCT116 human colon carcinoma cells were grown in Dulbecco’s Modified Eagle Medium (DMEM) supplemented with Fetal Bovine Serum (FBS, 10% final concentration) and 1x glutamine/penicillin/streptomycin. Cells were incubated at 37 °C and 5% CO2. Cells were treated with compounds (0.1-20 µM) with a final DMSO volume of 0.04%. DMSO (0.04%) treated and untreated (WT) cells were included as controls.
HCT116 cells were seeded into six well plates (400000 cells per well) and after requisite compound treatment time (24h, 48h, 72h) cells were harvested and either snap-frozen in liquid nitrogen or lysed in lysis buffer (50mM Tris-HCl, 150 mM NaCl, 0.5% NP-40, 0.5% Triton X-100 + protease inhibitor) on ice for 30 mins. This was centrifuged (15000 rpm, 4 °C, 15 mins) and the supernatant collected.
H2SO4 (0.4 M, equal volume) was added to the pellets for histone extraction and the tubes incubated overnight at 4 °C. Following this, the histone extract was centrifuged (15000 rpm, 4 °C, 15 mins) and the supernatant collected. Protein concentrations of whole cell extract were quantified via Bradford Assay using BIO-RAD Protein Assay Dye Reagent Concentrate.
Western blots were run on NuPAGE 4-12% Bis-Tris gels, with 30 µg of protein (whole cell extract) or an equivalent volume of histone extract loaded per lane, with all extracts dyed with 4x NuPAGE LDS Sample Buffer. PageRuler Plus Prestained Ladder was used as a reference. Gel electrophoresis was carried out at 140 V for 60-90 mins, following which the proteins were transferred onto nitrocellulose membrane at 30 V for 60 mins. Membranes were blocked in LI-COR Intercept Blocking Buffer overnight at RT on a roller, following which the membrane was probed with primary antibodies for 1 h at RT. The membrane was washed with PBS + 0.1% Tween (3 x 10 mins), then incubated with secondary antibodies for 50 mins at RT. The membrane was washed again (PBS Tween 2 x 10 mins, PBS 1 x 10 mins) following which the blot was visualised with the Odyssey Infrared Imaging System. Image processing and quantification was performed with ImageStudio Lite. […]
a-tubulin (mouse) – Sigma, t5168 (1:10000 dilution)

[3] = LSD1 enzymatic activity, complex 50 nM, HRP assay, SP2509 value is mean of three sets, read-out: LSD1-HDAC1-CoREST IC50
[4] = per parallel set, each set with SP2509 as reference standard, read-out: IC50 from dose response curves (Figure S1)

## O=C(CCCCC(=O)NC1CC1c1ccccc1)NCCNc1cccc2c1C(=O)N(C1CCC(=O)NC1=O)C2=O (centres unmarked) [compound 40]
[1]; complex 50 nM
  LSD1 inhibition at 50 μM: not LSD1 inhibitors

## COc1ccc(C(C)=NNC(=O)c2cccc(S(=O)(=O)N3CCOCC3)c2)c(O)c1 [compound 10]
[2]; [3]
  IC50: 12.4 nM
[2]; [4]
  IC50: 12 nM

## Cc1ncsc1-c1ccc(CNC(=O)[C@@H]2C[C@@H](O)CN2C(=O)[C@@H](NC(=O)CCCCCCCCCCC(=O)NC2CC2c2ccccc2)C(C)(C)C)cc1 (some centres unmarked) [compound 39]
[1]; complex 50 nM
  LSD1 inhibition at 50 μM: not LSD1 inhibitors

## CC(=NNC(=O)c1cccc(S(=O)(=O)N2CCN(C(=O)OC(C)(C)C)CC2)c1)c1cc(Cl)ccc1O [compound 11]
[2]; LSD1 enzymatic activity, complex 50 nM, HRP assay, read-out: LSD1-HDAC1-CoREST IC50
  IC50: > 20000 nM

## COc1ccc(O)c(C(C)=NNC(=O)c2cccc(S(=O)(=O)N3CCOCC3)c2)c1 [compound 8]
[2]; [3]
  IC50: 14.5 nM
[2]; [4]
  IC50: 15 nM

## COc1ccc(O)c(C=NNC(=O)c2cccc(S(=O)(=O)N3CCOCC3)c2)c1 [compound 9]
[2]; [3]
  IC50: 12.8 nM
[2]; [4]
  IC50: 13 nM

## C/C(=N\NC(=O)c1cccc(S(=O)(=O)N2CCOCC2)c1)c1cc(OCCCCCCCC(=O)N[C@H](C(=O)N2C[C@H](O)C[C@H]2C(=O)NCc2ccc(-c3scnc3C)cc2)C(C)(C)C)ccc1O [compound 28]
H3K4me2 in HCT116 cells
  H3K4me2 abundance: no increase in H3K4me2

## C/C(=N\NC(=O)c1cccc(S(=O)(=O)N2CCOCC2)c1)c1ccc(OCCOCCC(=O)OC(C)(C)C)cc1O [compound 12]
[2]; [3]
  IC50: 113 nM

## C/C(=N\NC(=O)c1cccc(S(=O)(=O)N2CCN(CCOCCC(=O)OC(C)(C)C)CC2)c1)c1cc(Cl)ccc1O [compound 15]
[2]; [3]
  IC50: 108 nM

## C/C(=N\NC(=O)c1cccc(S(=O)(=O)N2CCOCC2)c1)c1cc(OCCCC(=O)N[C@H](C(=O)N2C[C@H](O)C[C@H]2C(=O)NCc2ccc(-c3scnc3C)cc2)C(C)(C)C)ccc1O [compound 27]
H3K4me2 in HCT116 cells
  H3K4me2 abundance: no increase in H3K4me2

## C/C(=N\NC(=O)c1cccc(S(=O)(=O)N2CCNCC2)c1)c1cc(Cl)ccc1O [compound 14]
[2]; [3]
  IC50: 20.6 nM
[2]; [4]
  IC50: 21 nM

## O=C(CCCCCCCCCCC(=O)NC1CC1c1ccccc1)NCCNc1cccc2c1C(=O)N(C1CCC(=O)NC1=O)C2=O (centres unmarked) [compound 41]
[1]; complex 50 nM
  LSD1 inhibition at 50 μM: not LSD1 inhibitors

## Cc1ncsc1-c1ccc(CNC(=O)[C@@H]2C[C@@H](O)CN2C(=O)[C@@H](NC(=O)CCCCC(=O)NC2CC2c2ccccc2)C(C)(C)C)cc1 (some centres unmarked) [compound 38]
[1]; complex 50 nM
  LSD1 inhibition at 50 μM: modest inhibition

## C/C(=N\NC(=O)c1cccc(S(=O)(=O)N2CCOCC2)c1)c1cc(OCCOCCC(=O)OC(C)(C)C)ccc1O [compound 13]
[2]; [3]
  IC50: 159 nM

## COC(=O)c1ccc([C@@H]2C[C@H]2N)cc1 [compound 55]
[1]; complex 50 nM, mean ± SD from three replicates
  IC50: 94 nM
[1]; ratio of IC50 values
  enhancement in LSD1 inhibition compared to TCP: approximately 100 fold

## C/C(=N\NC(=O)c1cccc(S(=O)(=O)N2CCOCC2)c1)c1cc(OCCOCCC(=O)N[C@H](C(=O)N2C[C@H](O)C[C@H]2C(=O)NCc2ccc(-c3scnc3C)cc2)C(C)(C)C)ccc1O [compound 25]
H3K4me2 in HCT116 cells
  H3K4me2 abundance: no increase in H3K4me2

## C/C(=N\NC(=O)c1cccc(S(=O)(=O)N2CCOCC2)c1)c1cc(OCCOCCC(=O)NCCNc2cccc3c2C(=O)N(C2CCC(=O)NC2=O)C3=O)ccc1O (centres unmarked) [compound 30]
H3K4me2 in HCT116 cells
  H3K4me2 abundance: no increase in H3K4me2

## C/C(=N\NC(=O)c1cccc(S(=O)(=O)N2CCOCC2)c1)c1cc(OCCOCCOCCC(=O)NCCNc2cccc3c2C(=O)N(C2CCC(=O)NC2=O)C3=O)ccc1O (centres unmarked) [compound 31]
H3K4me2 in HCT116 cells
  H3K4me2 abundance: no increase in H3K4me2
